Source: patent US20130289099A1, “ABCG1 GENE AS A MARKER AND A TARGET GENE FOR TREATING OBESITY” (UNIVERSITE PIERRE ET MARIE CURIE (PARIS 6), priority 2010, published 2013)
{P} = phosphate

Columns and labels:
[1] = test system: human monocyte-derived macrophages (HMDM); experiment: VLDL-induced cellular triglyceride and cholesterol accumulation in HMDM; assay type: cell-based; details: 50 μg/mL VLDL, 24 h
Experimental: (§1) Quantification of total cellular triglyceride and cholesterol mass was performed as previously described (Milosavljevic et al., 2003).
(§2) Ten-day differentiated HMDM were grown in 24-well plates and transfected with 50 nM control siRNA (Dharmacon) or siRNA targeting human ABCG1 using lipofectamine RNAiMax (Invitrogen) according to the manufacturer's instructions. Transfection of 3T3-L1 preadipocytes and mature adipocytes with siRNA was achieved using the Nucleofector® technology (Lonza) according to the manufacturer's protocol. For each experiment, 2×10^6 cells and 100 pmol siRNA were diluted in 100 μl of V solution and processed with A-033 program.

[2] = test system: human ABCG1; experiment: siRNA silencing of ABCG1 in HMDM, Western blot of total ABCG1 protein; assay type: cell-based; details: HMDM transfected with 50 nM siRNA vs control siRNA
Experimental: (§3) Human Macrophages. Human THP-1 monocytic cells (ATCC) and a THP-1 clone stably transfected with an shRNA targeting human ABCG1, in which ABCG1 expression is stably knocked down (ABCG1 SKD), were cultured and differentiated into macrophage-like cells as previously described (Larrede et al., 2009). Circulating human monocytes were isolated from the blood of individual healthy normolipidemic donors (Etablissement Français du Sang, EFS) on Ficoll gradients (Ficoll-Paque PLUS, GE Healthcare) and subsequently differentiated into human macrophages (HMDM) following the procedure previously reported (Larrede et al., 2009).
Silencing of ABCG1 expression was performed by application of siRNA oligonucleotides (Dharmacon) targeted to the cDNA sequence of either the human ABCG1 gene (Genebank #AY048757):
Ten-day differentiated HMDM were grown in 24-well plates and transfected with 50 nM control siRNA (Dharmacon) or siRNA targeting human ABCG1 using lipofectamine RNAiMax (Invitrogen) according to the manufacturer's instructions. […]
Cell proteins were extracted using 200 μL M-PER reagent (Pierce) containing protease inhibitors and were subsequently separated on a 4-12% Bis-Tris gel (Invitrogen). […] ABCG1 was detected using rabbit anti-hABCG1 (NB400-132; Novus) at 1:500 and goat anti-rabbit/HRP (Dako) at 1:15000.

[3] = test system: LPL; experiment: Secreted LPL activity in culture media of HMDM after heparin; assay type: cell-based, human; details: ABCG1 KD HMDM, after heparin treatment, p=0.02
Experimental: as §3
(§4) Cell culture medium from either macrophage or adipocyte cultures was replaced by a serum-free medium containing 10 U/mL heparin (Choay) and the cells were subsequently incubated for 24 h at 37° C. Culture medium was then collected and stored at −80° C. until determination of LPL activity and cells were lysed overnight in 0.2 N NaOH. Cell protein was quantified using the BCA assay (Pierce). LPL activity was determined using a 50-μl aliquot of culture medium ( 1/10 of total volume), or plasma when indicated, according to the procedure previously described (Stengel et al., 1998). Results are expressed as units of LPL activity (1 U of LPL activity correspond to 1 nmol free fatty acid liberated/min/mg cell protein). […]

[4] = test system: LPL mRNA; experiment: LPL mRNA levels by real-time quantitative PCR in HMDM; assay type: cell-based, human; details: ABCG1 KD HMDM, p<0.05
Experimental: as §2
(§5) Twenty-four hours following transfection with siRNA, Control and ABCG1 KD cells were washed twice with cold PBS and total RNA was extracted using a NucleoSpin RNA II kit (Macherey-Nagel) according to the manufacturer's instructions. Reverse transcription of RNA and real time quantitative PCR using a LightCycler LC480 (Roche) were performed as previously described (Larrede et al., 2009). Expression data were based on the crossing points calculated with the software for LightCycler data analysis and corrected for PCR efficiencies of the target and the reference gene. When indicated, data were expressed as a fold change in mRNA expression relative to control values.

[5] = test system: LPL; experiment: Confocal microscopy of LPL at the cell surface of HMDM; assay type: cell-based, human; details: ABCG1 KD HMDM vs control
Experimental: Cells were blocked for 60 minutes with 3% BSA in PBS and then incubated with an anti-hLPL antibody (Abcam; 1:300) overnight at 4° C. After washing, a biotinylated goat anti-mouse IgG secondary antibody (1:1000; BD Pharmingen) was added, followed by the addition of streptavidin-horseradish peroxidase. The signal was enhanced using the tyramide signal amplification (TSA) kit (PerkinElmer) according to the manufacturer's protocol; cells were counterstained for nuclei with DAPI (Invitrogen). Confocal microscopy was performed using a Right confocal microscope Olympus FV-1000 with a 60× objective.

[6] = test system: LPL; experiment: Flow cytometry of cell surface LPL in THP-1 macrophages; assay type: cell-based, human; details: ABCG1 KD THP-1 macrophages, p<0.05
Experimental: as §3
Human THP-1 macrophages were cultured in 12-well plates (2.106 cells/well) and incubated in serum-free media in the presence or in the absence of 10 U/mL heparin (Choay) for 24 h at 37° C. following siRNA transfection. Cells were then washed and harvested in cold PBS. After brief centrifugation (2000 rpm, […]) at 4° C., cells were pre-incubated with 100 μl of human Fc Blocker (BD Pharmingen; 1:400 in PBS/BSA 1%) for 10 min at 4° C., and incubated with a monoclonal mouse antibody directed against human LPL (abcam; 1:100) for a further 15 min at 4° C. […] Cells were analyzed on an FC 500 flow cytometer (Beckman Coulter) using Epics XL32 software.

[7] = test system: SDC1, SDC2, VLDL-r, LRP, apoE, LDL-r; experiment: Relative mRNA levels of proteoglycan core proteins, lipoprotein receptors and apoE in HMDM; assay type: cell-based, human
Experimental: as §2, §5

[8] = test system: ABCG1; experiment: ABCG1 knockdown efficiency (mRNA) in 3T3-L1 adipocytes; assay type: cell-based, mouse; details: mature 3T3-L1 adipocytes, p<0.0005
Experimental: 3T3-L1 adipocytes. The 3T3-L1 preadipocytes (ATCC) were maintained in Dulbecco's modified Eagle medium (DMEM) supplemented with 10% calf serum and 2 mM glutamine. Differentiation of confluent preadipocytes was initiated with 250 nM insulin, 1250 nM dexamethasone and 250 μM 3-isobutyl-methyl-1-xanthine) in DMEM (4.5 g/L glucose) supplemented with 10% FBS. After 3 days, the culture medium was switched to DMEM (4.5 g/L glucose) supplemented with 10% FBS and 100 nM Insulin for 2 days. Then, 3T3-adipocytes were allowed to mature in DMEM (4.5 g/L glucose) containing 10% FBS, which was replaced every other day for 15 days. […]
as §5

[9] = test system: LPL; experiment: Secreted LPL activity in culture media of 3T3-L1 adipocytes; assay type: cell-based, mouse; details: ABCG1 KD 3T3-L1 adipocytes, p<0.05
Experimental: (§6) 3T3-L1 adipocytes. The 3T3-L1 preadipocytes (ATCC) were maintained in Dulbecco's modified Eagle medium (DMEM) supplemented with 10% calf serum and 2 mM glutamine. Differentiation of confluent preadipocytes was initiated with 250 nM insulin, 1250 nM dexamethasone and 250 μM 3-isobutyl-methyl-1-xanthine) in DMEM (4.5 g/L glucose) supplemented with 10% FBS. After 3 days, the culture medium was switched to DMEM (4.5 g/L glucose) supplemented with 10% FBS and 100 nM Insulin for 2 days. Then, 3T3-adipocytes were allowed to mature in DMEM (4.5 g/L glucose) containing 10% FBS, which was replaced every other day for 15 days.
as §4

[10] = test system: 3T3-L1 preadipocytes; experiment: Cellular triglyceride content during maturation of 3T3-L1 preadipocytes into adipocytes; assay type: cell-based, mouse; details: silencing in preadipocytes at D0; after 4 days of differentiation, p<0.05
Experimental: as §6, §1, §2

CCCCCCCCCCC[C@@H](C[C@@H]1OC(=O)[C@H]1CCCCCC)OC(=O)[C@H](CC(C)C)NC=O [THL, Tetrahydrolipstatin, reference compound]
TC accumulation induced by VLDL, change ([1]; control HMDM, 10 μM THL): −75%
TG accumulation induced by VLDL, change ([1]; control HMDM, 10 μM THL): −43%

5′-UCAUUGGCCUGCUGUACUU-UU-3 / 5′-P-AAGUACAGCAGGCCAAUGA-UU-3′ (sense UCAUUGGCCUGCUGUACUUUU; antisense AAGUACAGCAGGCCAAUGAUU; siRNA; sense: RNA, backbone not given here; antisense: RNA, 5' {P}, backbone not given here) [siRNA specific for the human ABCG1 gene]
ABCG1 expression (total ABCG1 protein, Western blot) [2]: almost complete abolition
secreted LPL activity, change vs control HMDM [3]: −52%
LPL expression (mRNA), change vs control HMDM [4]: +28%
abundance of LPL detected at the cell surface after heparin treatment ([5]; 10 U/mL heparin): still remained higher than that in control HMDM
LPL expression at the cell surface (confocal microscopy) ([5]; without heparin): much more pronounced than in control cells
expression of LPL at the cell surface (flow cytometry), change vs control cells [6]: +48%
VLDL-induced accumulation of cholesterol ([1]; ABCG1 KD HMDM): completely abolished
VLDL-induced accumulation of TG, change vs control cells ([1]; ABCG1 KD HMDM, p<0.01): −38%
relative mRNA levels of SDC1, SDC2, VLDL-r, LRP and apoE ([7]; ABCG1 KD human macrophages vs control): not altered
LDL-receptor (LDL-r) expression, induction vs control cells ([7]; ABCG1 KD macrophages, p<0.01): 2 fold

5′-GCGAAGCUGUACCUGGAUU-UU / 5′-P-AAUCCAGGUACAGCUUCGC-UU-3′ (sense GCGAAGCUGUACCUGGAUUUU; antisense AAUCCAGGUACAGCUUCGCUU; siRNA; sense: RNA, backbone not given here; antisense: RNA, 5' {P}, backbone not given here) [siRNA targeting mouse Abcg1]
inhibition of ABCG1 (mRNA), change vs control [8]: −77%
LPL activity in media, change vs control cells [9]: −81%
intracellular TG accumulation during adipocyte maturation, change vs control cells [10]: −22%
